Laboratory results reported in publication PMC9780825, “Combining mKate2-Kv1.3 Channel and Atto488-Hongotoxin for the Studies of Peptide Pore Blockers on Living Eukaryotic Cells” (Toxins, 2022).

What was measured:
Kv1.3 channel = conditions: whole-cell patch-clamp; mouse channels, L929 mouse fibroblast cells; read-out: Kd (published); cited from earlier work
From the text: Table 1 The Kap values for the complexes formed by K-ΔKv1.3 with the studied pore blockers and published data on the affinities of these blockers. | column: KTx1; ChTx; AgTx2; TEA

[1] = molecular target: K-ΔKv1.3 (N-terminally truncated human Kv1.3 tagged with mKate2) (Homo sapiens, UniProt P22001); test: Fluorescent competitive binding assay (FCBA), displacement of A-HgTx from K-ΔKv1.3; design: expressed in transfected cells; host or cells: HEK293 (transient transfection with pmKate2-KCNA3-del)
K-ΔKv1.3 (N-terminally truncated human Kv1.3 tagged with mKate2), sequence (P22001 53-575 limits assumed, stated change not applied): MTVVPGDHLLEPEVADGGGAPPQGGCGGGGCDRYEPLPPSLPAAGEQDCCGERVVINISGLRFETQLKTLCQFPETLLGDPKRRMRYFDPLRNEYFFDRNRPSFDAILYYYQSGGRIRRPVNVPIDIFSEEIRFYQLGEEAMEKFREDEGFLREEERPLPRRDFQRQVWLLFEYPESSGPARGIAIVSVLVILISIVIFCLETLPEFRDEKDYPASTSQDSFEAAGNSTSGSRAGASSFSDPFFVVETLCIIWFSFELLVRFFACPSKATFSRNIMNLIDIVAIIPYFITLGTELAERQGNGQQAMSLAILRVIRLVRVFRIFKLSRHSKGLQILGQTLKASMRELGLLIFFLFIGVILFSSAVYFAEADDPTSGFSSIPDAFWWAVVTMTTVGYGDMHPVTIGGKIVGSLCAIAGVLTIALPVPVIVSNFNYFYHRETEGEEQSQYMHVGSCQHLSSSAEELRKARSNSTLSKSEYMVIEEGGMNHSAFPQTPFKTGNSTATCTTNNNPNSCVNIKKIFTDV
From the text: To quantitatively characterize formation of complexes between A-HgTx and K-ΔKv1.3 on cell membranes, the confocal images of A-HgTx bound at the membrane of the K-ΔKv1.3 presenting cells were subjected to the treatment procedure as follows. Regions of interest (ROIs) corresponding to the plasma membranes stained with K-ΔKv1.3 were selected. Using a set of these ROIs and a threshold procedure (to null a background signal from pixels without K-ΔKv1.3 signal), the binary (0;1) mask that describes membranous localization of K-ΔKv1.3 was created. The images of K-ΔKv1.3 and A-HgTx distribution were multiplied by the corresponding mask. Next, average intensities of fluorescence of K-ΔKv1.3 (Ici) and A-HgTx (Ili) were calculated for each ROI (i.e., for each i-cell), and a ratio Ri was calculated as follows. Ri = (Ili − Ilb)/(Ici − Icb) (1) where Ilb and Icb are intensities of background signals in the fluorescent images of A-HgTx and Kv1.3 channels, respectively. Calculating Ri (i.e., normalizing A-HgTx intensity to that of K-ΔKv1.3), a correction was introduced for variations in a level of K-ΔKv1.3 expression on the membrane of particular cells. Ri values of 15–20 cells were averaged to obtain the Rav value, and a standard deviation was calculated.
Concentration of A-HgTx was 2 nM. Concentration of pore blockers C varied as indicated in the graph.
When Kd of A-HgTx and IC50 for the studied compound are known, the apparent dissociation constant Kap of complexes between the compound and channel can be calculated using the Cheng-Prusoff equation [50]:Kap = IC50/(1 + L/Kd)(4) where L is the concentration of A-HgTx in the competitive binding experiment.
In A-HgTx binding experiments, cells were incubated with A-HgTx (0.15–4 nM) for 30 min (37 °C, 5% CO2) in the complete medium. In competitive binding experiments, cells were incubated with A-HgTx (2 nM) and selected pore blocker at variable concentrations (0.5–100 nM for recombinant peptides and 1–20 mM for TEA) for 30 min (37 °C, 5% CO2) in the complete medium.
Experiments with HEK293 cells were performed with a laser scanning confocal microscope Leica-SP2 (Leica Microsystems GmbH, Wetzlar, Germany). The water-immersion 63×/1.2 NA HCX PL APO objective was used.
Fluorescence of mKate2-fused hKv1.3 was excited at the 561 nm wavelength and recorded in the 650–700 nm range. Fluorescence of A-HgTx was excited at the 488 nm wavelength and recorded in the 495–535 nm range. Distributions of A-HgTx and mKate2 fluorescence in cells were imaged using sequential scanning to avoid interference of intrinsic cellular fluorescence excited at the 488 nm with the mKate2 fluorescence.
Each experimental point in the curves describing interaction A-HgTx with mKate2-tagged Kv1.3 channels is an average over 15–25 treated images of cells. […]

Structure (SMILES): CC[N+](CC)(CC)CC [TEA, tetraethylammonium]
- Kd (Kv1.3 channel): 10 mM
- Kd ([1]; Cheng-Prusoff from IC50, 2 nM A-HgTx, blockers 0.5–100 nM (peptides) or 1–20 mM (TEA), 30 min, 37 °C, 5% CO2, complete medium, HEK293 cells, mean ± SEM, three independent measurements, read-out: Kap, apparent dissociation constant of complexes formed by K-ΔKv1.3 with pore blocker): 2 mM
- active concentration range (FCBA) ([1]; FCBA, HEK293 cells, result in words): active in the millimolar concentration range
- displacement of A-HgTx from the complexes with K-ΔKv1.3 ([1]; living HEK293 cells, 2 nM A-HgTx, result in words): A-HgTx is also displaced
